Results on 3 compounds are retold here after PMC4810224, “Validation of the Target Protein of Insecticidal Dihydroagarofuran Sesquiterpene Polyesters” (Toxins, 2016).

Structures are written as SMILES.

This assay addresses T1, subunit H of V-ATPase (recombinant subunit H) (Mythimna separata, UniProt A0A0D3L6K4).
T1 construct: full CDS in pET-15b, N-terminal His tag, E. coli BL21 (DE3), Ni-NTA twice, ~55 kDa, free subunit
T1 sequence (A0A0D3L6K4 1-474): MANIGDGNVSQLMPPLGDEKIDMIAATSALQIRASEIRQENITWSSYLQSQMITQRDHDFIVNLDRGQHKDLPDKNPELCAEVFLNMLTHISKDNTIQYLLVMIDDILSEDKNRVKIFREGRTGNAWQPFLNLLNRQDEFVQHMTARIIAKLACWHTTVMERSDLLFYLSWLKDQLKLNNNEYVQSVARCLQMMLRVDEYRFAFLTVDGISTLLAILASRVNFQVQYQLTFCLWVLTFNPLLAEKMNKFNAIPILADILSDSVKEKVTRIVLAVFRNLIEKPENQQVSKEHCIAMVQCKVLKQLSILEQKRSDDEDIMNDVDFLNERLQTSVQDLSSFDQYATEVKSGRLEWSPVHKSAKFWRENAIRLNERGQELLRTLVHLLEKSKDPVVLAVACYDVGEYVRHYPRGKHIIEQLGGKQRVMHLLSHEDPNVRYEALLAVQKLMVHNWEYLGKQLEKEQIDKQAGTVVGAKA
The assay can be described thus: microscale thermophoresis (Monolith NT.[…]), RED-NHS labelled protein. Type of assay: binding. In general terms: MST reads how a fluorescent partner responds to local heating, with and without ligand.
The Kd is a measure of binding affinity in units of concentration. Take `CNc1ccccc1C(=O)O[C@@H]1[C@H]2[C@H](OC(=O)C(C)C)[C@@H](OC(=O)c3ccccc3)[C@]3(COC(=O)C(C)C)[C@@H](OC(C)=O)[C@@H](OC(C)=O)C[C@](C)(O)[C@@]13OC2(C)C` [CV-6-N-methylisatoic]: the Kd is 213 µM.

As to `CC(=O)O[C@H]1C[C@](C)(O)[C@]23OC(C)(C)[C@H]([C@H](OC(=O)C(C)C)[C@@H](OC(=O)c4ccccc4)[C@]2(COC(=O)C(C)C)[C@H]1OC(C)=O)[C@H]3OC(=O)C(C)N` (stereo partly drawn) [CV-6-α-aminopropanoic acid ester], the Kd was determined as 144 µM.

As for `CC(=O)O[C@H]1C[C@](C)(O)[C@]23OC(C)(C)[C@H]([C@H](OC(=O)C(C)C)[C@@H](OC(=O)c4ccccc4)[C@]2(COC(=O)C(C)C)[C@H]1OC(C)=O)[C@H]3OC(=O)CN` [CV-6-aminoacetic acid ester], the Kd was determined as 156 µM.
